Here are results for two compounds from patent publication US20200003756A1, “METHOD FOR OBSERVING SEBACEOUS GLAND” (MANDOM CORPORATION, priority 2017, published 2020).

Molecules are shown by their SMILES.

Assay [1] concerns sebaceous-gland-structure A. The assay can be described thus: Degree of sebum production from three-dimensional image analysis of outermost layer (Example 4). Type of assay: cell-based. The note with it: 24 hours. How it is done:
Linoleic acid and phytic acid as test substances were added to the mixed medium obtained in Preparation Example 1 (test sample A) so that the concentration of linoleic acid was 1×10^−4M and so that the concentration of the test sample was 100 μM, to obtain a test sample E. One milliliter of the test sample A was added to each well of a 24-well plate. Text, the sebaceous-gland-structure A obtained in Preparation Example 6 was cultured in a suspended state in the test sample A contained in each well of the 24-well plate in the presence of 5% by volume carbon dioxide at 37° C. for 24 hours, to contact the sebaceous-gland-structure A with the test sample A (Experiment number 10). In addition, the sebaceous-gland-structure A was contacted with the test sample B (Experiment number 11) or the test sample E (Experiment number 12) in the same manner as in Experiment, number 10 except that in Experiment number 10, the test sample B obtained in Example 1(1) (Experiment number 11) or the test sample E obtained in Example 4(1) (Experiment number 12) was used in place of the test sample A. Each of observation samples of Experiment numbers 10 to 12 was obtained in the same manner as in Preparation Example 7 except that in Preparation Example 7, the cultured sebaceous-gland-structure A obtained in Example 4(2) (Experiment numbers 10 to 12) was used in place of the cultured sebaceous-gland-structure A obtained in Preparation Example 6. The appearance of the sebaceous-gland-structure A contained in the observation sample of each of Experiment numbers 10 to 12 obtained in Example 4(3) was observed under a confocal microscope by using image analysis software (manufactured b Bitplane AG, trade name: Imaris), thereby giving three-dimensional image of the sebaceous-gland-structure A. Next, information of the outermost layer of the sebaceous-gland-structure A was extracted from the data of the resulting three-dimensional image by using image analysis software (manufactured by Bitplane AG, trade name: Imaris). Thereafter, the whole volume of the cells present in the outermost layer was calculated from the extracted information, and thereafter the sebum droplets contained in the outermost layer were counted. Using the whole volume of the cells present in the outermost layer and the number of lipid droplets of the sebum the degree of sebum production was calculated according to Formula (I): [Degree of Sebum production]=[Number of lipid droplets of sebum]/[Whole volume of cells present in outermost layer] (I)

For assay [2], the system named is sebaceous-gland-structure A. The assay can be described thus: Observation of inside of sebaceous-gland-structure, lipid droplets of sebum in outermost layer / degree of progress of sebum production (Example 2). Type of assay: cell-based. The conditions noted are these: test sample D, linoleic acid 1×10^−4 M plus test substance 1 μM, 24 hours (Experiment number 9); FIGS. 9 and 10. Here is the method: Linoleic acid and linoleic acid receptor antagonist (manufactured by Abeam plc, trade name: GSK-3787) as test substances were added to the mixed medium obtained in Preparation Example 1 so that the concentration of linoleic acid was 1×10^−4 M and so that the concentration of the test substance was 1 μM, to obtain a test sample D.
One milliliter of the test sample A was added to each well of a 24-well plate. Next, the sebaceous-gland-structure A obtained in Preparation Example 6 was cultured in a suspended state in the test sample A in each well of the 24-well plate in the presence of 5% by volume carbon dioxide at 37° C. for 24 hours, to contact the sebaceous-gland-structure A with the test sample A (Experiment number 7). […]
Furthermore, the state of each cell of 40 cells in the outermost layer shown in each figure was evaluated by using the results shown in FIGS. 7 to 9 on the basis of the evaluation criterion described below. […]
Next, the degree of progress of sebum production in the sebaceous gland cell contained in the sebaceous-gland-structure A was evaluated by calculating the mean value of the points in the 40 cells in the outermost layer in FIGS. 7 to 9. […]

For the compound `O=P(O)(O)O[C@H]1[C@H](OP(=O)(O)O)[C@@H](OP(=O)(O)O)[C@H](OP(=O)(O)O)[C@@H](OP(=O)(O)O)[C@H]1OP(=O)(O)O` [phytic acid], the sebum production-regulating action result in assay [1] (phytic acid 100 μM in presence of linoleic acid 1×10^−4 M, conclusion from FIG. 11) was “sebum production-inhibiting action”. Further, the “degree of sebum production (number of lipid droplets of sebum / whole volume of cells present in outermost layer)” value in assay [1] (test sample E, linoleic acid 1×10^−4 M plus phytic acid 100 μM, compared with test sample containing linoleic acid, FIG. 11) is “lower”. Turning to `O=C(NCCS(=O)(=O)c1ccc(C(F)(F)F)cn1)c1ccc(Cl)cc1` [linoleic acid receptor antagonist, GSK-3787], the “lipid droplets of sebum in the outermost layer of the sebaceous-gland-structure A” value in assay [2] is on record as “no lipid droplet of sebum was found”.
